Results: patent US7572459B2, “Anionic or cationic dendrimer antimicrobial or antiparasitic compositions” (Starpharma Pty Ltd., priority 1998, dated 2009)

Type: cell-based
Source text: • II The following assay results were obtained in an in vitro assay to test for inhibition of Trypanosoma (T) and Plasmodium (P) species.

| Substance | Cytotoxicity MIC |
| --- | --- |
| BHAlys31lys32(NHCSNHPhOP[O] [ONa]2)64 [BRI6181] | >100 µg/mL |
| PAMAM 4.0 EDA(NHCSNH SaccharinNa)32 [BRI6157] | >100 µg/mL |
| PAMAM 4.0 EDA(NHCSNH-3,5 Ph [COOH]2)32 [BRI6195] | >100 µg/mL |
